Assay results published in PubChem BioAssay (NCI).
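Step 1: Grow cells in 96-well plates. Step 2: Expose to compound for 48 hours at 5 concentrations. Step 3: Interpolate endpoints linearly; if unreached, use highest concentration. TGI: total growth inhibition.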

Key:
Experiment in all cases: growth of human tumour cells (NCI), 48 h
SF-295 CNS = test system: SF-295 CNS
SF-268 CNS = test system: SF-268 CNS
DU-145 prostate = test system: DU-145 prostate
A498 renal = test system: A498 renal
NCI-H23 lung = test system: NCI-H23 lung
RXF 393 renal = test system: RXF 393 renal
EKVX NSCLC = test system: EKVX NSCLC
HT29 colon = test system: HT29 colon
KM12 colon = test system: KM12 colon
PC-3 prostate = test system: PC-3 prostate
HOP-62 NSCLC = test system: HOP-62 NSCLC
HS 578T breast = test system: HS 578T breast
OVCAR-3 ovarian = test system: OVCAR-3 ovarian
HCT-15 colon = test system: HCT-15 colon
HCC-2998 colon = test system: HCC-2998 colon
ACHN renal = test system: ACHN renal
A549 NSCLC = test system: A549 NSCLC
RPMI-8226 leukemia = test system: RPMI-8226 leukemia

Row | Compound | TGI (SF-295 CNS) | TGI (SF-268 CNS) | TGI (DU-145 prostate) | TGI (A498 renal) | TGI (NCI-H23 lung) | TGI (RXF 393 renal) | TGI (EKVX NSCLC) | TGI (HT29 colon) | TGI (KM12 colon) | TGI (PC-3 prostate) | TGI (HOP-62 NSCLC) | TGI (HS 578T breast) | TGI (OVCAR-3 ovarian) | TGI (HCT-15 colon) | TGI (HCC-2998 colon) | TGI (ACHN renal) | TGI (A549 NSCLC) | TGI (RPMI-8226 leukemia)
1 | Oc1cc(-c2ccc(Cl)cc2)cn2c1nc1ccccc12 | > 100 µM | > 100 µM | > 100 µM | > 100 µM | > 100 µM | > 100 µM | > 100 µM | > 100 µM | > 100 µM | > 100 µM | > 100 µM | > 100 µM | > 100 µM | > 100 µM |  |  |  | 
2 | NC(=O)C1Cc2cc3c(cc21)OCO3 (configuration not stated) | > 100 µM | > 100 µM | > 100 µM |  | > 100 µM | > 100 µM | > 100 µM | > 100 µM | > 100 µM | > 100 µM | > 100 µM | > 100 µM | > 100 µM | > 100 µM | > 100 µM | > 100 µM | > 100 µM | 
3 | CC(C)C(Sc1nc(-c2ccccc2)c(-c2ccccc2)[nH]1)C(=O)NN (configuration not stated) | > 100 µM | > 100 µM |  | > 100 µM | > 100 µM | > 100 µM |  | > 100 µM | > 100 µM |  | > 100 µM |  | > 100 µM | > 100 µM |  | > 100 µM | > 100 µM | > 100 µM
4 | CN1CCCOC(c2ccc([N+](=O)[O-])cc2)O1 (configuration not stated) | > 100 µM | > 100 µM | > 100 µM | > 100 µM | > 100 µM | > 100 µM | > 100 µM | > 100 µM | > 100 µM | > 100 µM | > 100 µM |  | > 100 µM | > 100 µM | > 100 µM | > 100 µM | > 100 µM | 
5 | CC(=O)N1C(NN(C)C)CCN1c1ccccc1 (configuration not stated) | > 10 µM | > 10 µM | > 10 µM |  | > 10 µM | > 10 µM | > 10 µM | > 10 µM | > 10 µM | > 10 µM | > 10 µM |  |  | > 10 µM | > 10 µM |  | > 10 µM | > 10 µM
6 | C/C(=N\NC(=O)c1ccncc1)c1ccccc1F | > 10 µM | > 10 µM |  | > 10 µM | > 10 µM | > 10 µM |  |  | > 10 µM | > 10 µM | > 10 µM |  | > 10 µM | > 10 µM | > 10 µM | > 10 µM | > 10 µM | > 10 µM
7 | Cc1c2c(Cl)c3c(c(Cl)c2c(C)c2c(Cl)c4c(c(Cl)c12)C(c1ccccc1)(c1ccccc1)C4(c1ccccc1)c1ccccc1)C(c1ccccc1)(c1ccccc1)C3(c1ccccc1)c1ccccc1 | > 100 µM | > 100 µM | > 100 µM | > 100 µM | > 100 µM | > 100 µM | > 100 µM | > 100 µM | > 100 µM | > 100 µM | > 100 µM |  | > 100 µM | > 100 µM | > 100 µM | > 100 µM | > 100 µM | 
8 | NC1CC(Cl)c2c(Cl)sc(Cl)c21 (configuration not stated) | > 100 µM | > 100 µM | > 100 µM | > 100 µM | > 100 µM | > 100 µM | > 100 µM | > 100 µM | > 100 µM |  | > 100 µM | > 100 µM | > 100 µM | > 100 µM | > 100 µM | > 100 µM | > 100 µM | 
9 | COCn1cnc2c(=O)n(-c3ccc(OC)cc3)c(=S)n(-c3ccc(OC)cc3)c21 | > 100 µM | > 100 µM | > 100 µM | > 100 µM | > 100 µM | > 100 µM | > 100 µM | > 100 µM | > 100 µM | > 100 µM | > 100 µM |  | > 100 µM | > 100 µM | > 100 µM | > 100 µM | > 100 µM | > 100 µM
10 | Cc1ccc(N(C(=O)Nc2ccc(F)c(Cl)c2)C2=NCC(C)S2)cc1 (configuration not stated) | > 100 µM | > 100 µM | > 100 µM | > 100 µM | > 100 µM |  | > 100 µM | > 100 µM | > 100 µM | > 100 µM | > 100 µM | > 100 µM | > 100 µM | > 100 µM |  | > 100 µM | > 100 µM | 
11 | Cn1ccc2c(C(=O)c3ccccc3)cccc2c1=O | 66.9 µM | > 100 µM |  |  |  | > 100 µM | > 100 µM | > 100 µM | > 100 µM |  | 93.7 µM |  | > 100 µM | > 100 µM | > 100 µM | > 100 µM | > 100 µM | > 100 µM
12 | COc1ccc(N2C(=O)C3c4[nH]c5ccccc5c4C4CC(C)CC(C)C4C3C2=O)cc1 (configuration not stated) | > 100 µM | > 100 µM |  | > 100 µM | > 100 µM | > 100 µM | > 100 µM | > 100 µM |  |  | > 100 µM |  |  | > 100 µM | > 100 µM | > 100 µM | > 100 µM | > 100 µM
13 | CN(C)CC1CCCC(CN(C)C)C1=NOC(=O)c1ccccc1 (configuration not stated) | > 100 µM | > 100 µM |  | > 100 µM | > 100 µM |  | > 100 µM | > 100 µM | > 100 µM |  | > 100 µM |  | > 100 µM | > 100 µM | > 100 µM | > 100 µM | > 100 µM | > 100 µM
14 | CN1C(=O)C(c2c[nH]c3ccccc23)N(C)C(=O)C1c1c[nH]c2ccccc12 (configuration not stated) | > 100 µM | > 100 µM | > 100 µM |  | > 100 µM | > 100 µM | > 100 µM | > 100 µM | > 100 µM | > 100 µM | > 100 µM | > 100 µM | > 100 µM | > 100 µM | > 100 µM | > 100 µM | > 100 µM | 
15 | CN(C(=O)C1CCCCCC1=O)c1ccccc1Cl (configuration not stated) | > 100 µM | > 100 µM | > 100 µM | > 100 µM | > 100 µM | > 100 µM | > 100 µM | > 100 µM | > 100 µM |  | > 100 µM |  | > 100 µM | > 100 µM |  | > 100 µM | > 100 µM | > 100 µM
